Data taken from US20220016111A1, “Methods of Treating Inflammation” (The Walter and Eliza Hall Institute of Medical Research, priority 2018, published 2022).
Entries after “also recorded” stand apart in the source; their conditions may differ.

Legend:
[1] = in vivo, cited from earlier work
[2] = in-vivo; cited from earlier work
EZH1 [3] = biological target: T1, EZH1 (Homo sapiens, UniProt Q92800); settings: cited from earlier work
[4] = system: 30 other histone or DNA methyltransferases; settings: cited from earlier work
H3K27 methylation = settings: cited from earlier work
[5] = system: diffused large B-cell lymphomas cells carrying the Y641 mutations; settings: cited from earlier work
[6] = system: wild type and mutant forms of EZH2; settings: cited from earlier work
[7] = system: established allergic inflammation; assay: Established OVA inflammation, three doses of GSK126; type: in vivo, C57BL/6 mice
Method: Data shown representative of n=5 OVA/Vehicle (Veh) and OVA/GSK groups, n=2 unchallenged controls (Con) shown for reference purposes. c) Quantification of b. Mean and SEM shown. Group sizes as in b. […] Scale bar represents 100 μm. f) Quantification of PAS^+ cells and Inflammation Score. Mean and SEM shown. Group sizes as in b. Statistical analysis by 1-way ANOVA with Holm-Sidak post-hoc.
(§1) Mice were immunized with an intraperitoneal injection of 200 μL Alum/OVA containing 20 μg low-endotoxin ovalbumin (Worthington) and 2.25 mg aluminium hydroxide (Sigma) in sterile PBS on day 0 and day 7. Mice were then rested for a minimum of 2 weeks and then challenged daily for 4 days with nebulized 2% (w/v) ovalbumin (Sigma) in PBS for 15 min. The day after the final challenge (or at a time-point described in the text), mice were sacrificed and bronchoalveolar lavage (250 μL×2 with sterile PBS) was performed from which cellular infiltrate was analysed by flow cytometry and acellular BAL fluid was analysed by Bio-Plex Pro™ cytokine assay (Biorad). Lung tissue was then fixed by inserting 1 mL of 10% formalin via the trachea into the lungs leaving to set in situ for at least 30 min. The mid-section of the left lobe was then excised and placed in liquid formalin for a further 24 h prior to paraffin embedding, sectioning and staining with Periodic acid-Schiff (PAS) and Haematoxylin and Eosin (H&E) stains. Stained slides were imaged using an Aperio Digital Pathology Slide Scanner and quantitated by counting PAS positive epithelial cells and scoring leukocyte infiltration in H&E stained sections according to the scoring chart (FIG. 16). Scores from at least five 20× magnification fields of each stain were averaged for each mouse.
The therapeutic regime was then extended to three doses (day 5, 8 and 10) after establishing inflammation by OVA challenge on days 1-4, and airway inflammation assessed on day 11 (FIG. 15a).

tumours = settings: mouse models; cited from earlier work
[8] = system: 20 other methyltransferases; settings: cited from earlier work
[9] = system: OVA-induced allergic inflammation; type: in vivo, C57BL/6 mice
Method: (§2) Mean and SEM is shown. […] Scale bar represents 100 μm. e) Quantification of histological analysis showing the frequency of PAS^+ cells and the Inflammation Score. Mean and SEM are shown for n=8 per group. […] Mean and SEM are shown for n=5 (Vehicle), n=4 (each GSK dose).
Mean and SEM as well as individual data points are shown. n=4 each group. Data was statistically tested by 1-way ANOVA with Dunnet's post-hoc test.
as §1
Lung function was assessed by the forced oscillation technique using a FlexiVent system with FX1 module (Scireq, Montreal, Canada). Mice were anaesthetized with ketamine (150 mg/kg) and xylazine (15 mg/kg) then cannulated by tracheostomy with ligation. Baseline respiratory mechanics were recorded, followed by aerosolized saline then increasing doses of methacholine (MCh) (0.1-30 mg/mL). Respiratory impedance (Zrs) was measured and partitioned into airway and parenchymal components through fitting to the Constant Phase Model from which Newtonian resistance (Rn; equivalent to airway resistance) was calculated.
Total IgE and OVA-specific IgE were measured by enzyme-linked immunosorbent assay (ELISA). Briefly, 96 well plates were coated with either Rat anti-mouse IgE (to measure total IgE; Southern Biotech clone #23G2, cat #1130-01) or OVA protein (for OVA-specific IgE) in PBS overnight. Samples were diluted (total IgE 1:50-1:200 and OVA-specific IgE 1:50-1:100 based on pilot assays), and incubated in duplicate, prior to incubation with GAM Fc-specific polyclonal anti-IgE-HRP and colorimetric detection using TMB substrate (Thermo Scientific #34028), measuring absorbance at 450 nm. Absorbance values were converted to total IgE levels by reference to a mouse IgE anti-DNP (clone SPE-7) standard curve (0.1 ng/mL-1 μg/mL) which was included on the same plate. OVA-specific IgE absorbance was expressed relative to a reference OVA-immunized WT mouse which was selected prior to measurement. All ELISAs were performed blinded to treatment and genotype.

[10] = system: established allergic inflammation; assay: Established OVA inflammation, single dose of GSK126; type: in vivo, C57BL/6 mice; settings: single dose 150 mg/kg oral gavage on day 5, assessed 3 days later
Method: CD4+ and CD8+ T cells were first gated by CD11b−GR1−TCRβ+. Neutrophils were gated by CD11bHiGR1Hi. Eosinophils were gated by CD11b+CD11c−SiglecF+. Mean and SEM are shown. n=2 Alum-sensitized vehicle treated controls shown for comparative purposes. OVA-sensitized groups were statistically compared by Student's t test.
as §1, with “The mid-section of the left lobe was then excised and placed in liquid formalin for a further 24 h prior to paraffin embedding, sectioning and staining with Periodic acid-Schiff (PAS) and Haematoxylin and Eosin (H&E) stains.” left out, “Scores from at least five 20× magnification fields of each stain were averaged for each mouse.” left out

[11] = system: activated C57BL/6 mouse CD4+ T cells; assay: Survival/expansion of activated CD4+ T cells in vitro; type: cell-based; settings: anti-CD3 and anti-CD28 activation, three days
Excerpt: as §2
Nave CD4^+ T cells were isolated from a single-cell suspension from mouse spleen by MACS isolation kit (Miltenyi Biotech). Cells were labelled with CellTrace™ Violet (CTV, Thermo Fisher) then activated in 96 well plates pre-coated with anti-CD3 (10 μg/mL) and anti-CD28 (5 μg/mL) in RPMI-1640 medium supplemented with 10% heat-inactivated fetal bovine serum, 2 mM GlutaMAX™ and 0.05 mM β-mercaptoethanol.

EZH1 [12] = biological target: T1, EZH1; settings: cited from earlier work; remark: listed apart in the source
MLL-rearranged leukemia = settings: in-vitro and in vivo; cited from earlier work
[13] = 150 mg/kg on day 5, 8 and 10, assessed day 11
[14] = 75 mg/kg, compared with vehicle
[15] = 150 mg/kg oral gavage, each day of OVA challenge
[16] = after OVA challenge and GSK126 administration

T1 sequence (Q92800 whole entry, species assumed): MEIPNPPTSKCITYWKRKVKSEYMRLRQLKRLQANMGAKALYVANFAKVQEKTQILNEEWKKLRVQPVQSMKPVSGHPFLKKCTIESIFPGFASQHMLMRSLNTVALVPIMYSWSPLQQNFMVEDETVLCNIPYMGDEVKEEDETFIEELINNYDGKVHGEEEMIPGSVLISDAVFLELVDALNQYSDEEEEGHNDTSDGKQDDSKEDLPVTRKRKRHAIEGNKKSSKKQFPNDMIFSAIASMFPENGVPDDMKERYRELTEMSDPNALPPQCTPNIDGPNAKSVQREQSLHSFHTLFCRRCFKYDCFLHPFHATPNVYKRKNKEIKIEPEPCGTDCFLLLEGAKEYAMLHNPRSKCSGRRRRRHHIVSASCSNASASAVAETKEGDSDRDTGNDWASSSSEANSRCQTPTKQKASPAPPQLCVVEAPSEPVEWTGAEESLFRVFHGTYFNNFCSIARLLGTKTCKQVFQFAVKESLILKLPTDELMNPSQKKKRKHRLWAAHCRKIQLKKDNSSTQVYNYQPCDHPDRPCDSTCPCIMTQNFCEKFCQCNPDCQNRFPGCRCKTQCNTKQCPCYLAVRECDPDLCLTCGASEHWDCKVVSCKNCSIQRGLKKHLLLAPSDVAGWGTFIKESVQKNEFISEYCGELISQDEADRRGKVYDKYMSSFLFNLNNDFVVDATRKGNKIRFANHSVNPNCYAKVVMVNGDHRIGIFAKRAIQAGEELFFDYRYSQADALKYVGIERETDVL
T1 sequence (O75530 whole entry partner, species assumed): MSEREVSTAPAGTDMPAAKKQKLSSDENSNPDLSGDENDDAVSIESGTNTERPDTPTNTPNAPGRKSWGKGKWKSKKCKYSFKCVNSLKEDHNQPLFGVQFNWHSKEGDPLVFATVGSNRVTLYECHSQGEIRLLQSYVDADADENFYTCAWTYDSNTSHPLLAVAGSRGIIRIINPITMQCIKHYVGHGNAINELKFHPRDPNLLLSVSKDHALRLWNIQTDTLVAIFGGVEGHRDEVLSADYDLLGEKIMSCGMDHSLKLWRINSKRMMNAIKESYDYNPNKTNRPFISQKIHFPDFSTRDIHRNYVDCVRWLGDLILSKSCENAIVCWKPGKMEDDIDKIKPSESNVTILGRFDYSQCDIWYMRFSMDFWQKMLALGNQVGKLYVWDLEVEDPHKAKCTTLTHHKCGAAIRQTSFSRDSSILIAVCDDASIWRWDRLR
T1 sequence (Q15022 whole entry partner, species assumed): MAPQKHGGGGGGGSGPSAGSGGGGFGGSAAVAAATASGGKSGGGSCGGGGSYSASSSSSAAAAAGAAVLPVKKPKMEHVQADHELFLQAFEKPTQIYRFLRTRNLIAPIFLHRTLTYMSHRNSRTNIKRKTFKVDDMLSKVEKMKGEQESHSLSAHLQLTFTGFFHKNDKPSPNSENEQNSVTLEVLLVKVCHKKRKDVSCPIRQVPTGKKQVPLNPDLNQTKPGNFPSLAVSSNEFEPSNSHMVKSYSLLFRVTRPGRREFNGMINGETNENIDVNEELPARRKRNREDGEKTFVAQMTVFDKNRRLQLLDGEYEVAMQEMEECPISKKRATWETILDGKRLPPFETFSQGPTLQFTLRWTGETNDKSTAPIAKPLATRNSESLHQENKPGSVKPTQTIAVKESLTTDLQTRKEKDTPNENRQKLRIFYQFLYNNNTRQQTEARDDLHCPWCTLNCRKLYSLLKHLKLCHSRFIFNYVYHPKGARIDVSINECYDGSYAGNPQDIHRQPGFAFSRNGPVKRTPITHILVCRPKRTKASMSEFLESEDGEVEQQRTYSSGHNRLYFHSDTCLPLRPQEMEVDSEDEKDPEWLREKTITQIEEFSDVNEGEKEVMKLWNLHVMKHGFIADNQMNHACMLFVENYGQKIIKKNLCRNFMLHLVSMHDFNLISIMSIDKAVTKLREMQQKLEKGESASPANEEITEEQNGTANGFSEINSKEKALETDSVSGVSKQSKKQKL
T1 sequence (Q09028 whole entry partner, species assumed): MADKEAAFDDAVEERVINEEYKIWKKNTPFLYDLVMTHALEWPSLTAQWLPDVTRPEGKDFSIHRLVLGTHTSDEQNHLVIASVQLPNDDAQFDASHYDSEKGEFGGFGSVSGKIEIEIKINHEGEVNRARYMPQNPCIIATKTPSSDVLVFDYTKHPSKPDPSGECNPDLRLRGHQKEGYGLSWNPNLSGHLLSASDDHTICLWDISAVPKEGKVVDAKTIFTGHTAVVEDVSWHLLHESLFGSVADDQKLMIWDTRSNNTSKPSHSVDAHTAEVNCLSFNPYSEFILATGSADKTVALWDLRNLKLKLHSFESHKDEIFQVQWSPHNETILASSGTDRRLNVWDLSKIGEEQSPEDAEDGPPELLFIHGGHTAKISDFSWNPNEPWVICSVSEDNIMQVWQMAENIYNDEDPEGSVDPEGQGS

CCS(=O)(=O)N1CCC([C@@H](C)n2c(C)c(C(=O)NCc3c(OC)cc(C)[nH]c3=O)c3ccccc32)CC1 [CPI-169]
oral bioavailability [1]: limited oral bioavailability
antitumor activity and PD target engagement [2]: demonstrated antitumor activity and PD target engagement

COc1cc(C)[nH]c(=O)c1CNC(=O)c1c(C)n([C@H](C)C2CCN(CC(F)(F)F)CC2)c2ccccc12 [CPI-1205]
selectivity for EZH2 over EZH1 (EZH1 [3]): modest selectivity
selectivity against 30 other histone or DNA methyltransferases [4]: selectivity
oral bioavailability [1]: orally bioavailable

CCC(CC)n1ccc2c(C(=O)NCc3c(C)cc(C)[nH]c3=O)cc(C#N)cc21 [EI1]
H3K27 methylation and PRC2 target genes in treated cells (H3K27 methylation): genome-wide loss of H3K27 methylation and activation of PRC2 target genes
effect on lymphoma cells [5]: decreased proliferation, cell cycle arrest, and apoptosis

Cc1cc(C)c(CNC(=O)c2cc(-c3ccc(CN4CCOCC4)cc3)cc3c2cnn3C2CCCC2)c(=O)[nH]1 [EPZ 005687]
pharmacokinetic properties [1]: suboptimal
affinity and selectivity for EZH2 [6]: high affinity and selectivity

CC[C@H](C)n1cc(C)c2c(C(=O)NCc3c(C)cc(C)[nH]c3=O)cc(-c3ccc(N4CCNCC4)nc3)cc21 [GSK126]
BAL B cells [7, 13]: significantly reduced
BAL CD4+ T cells [7, 13]: significantly reduced
BAL eosinophils [7, 13]: significantly reduced
PAS+ mucous-producing cells [7, 13]: reduced
airway inflammation [7, 13]: reduced
total BAL cells [7, 13]: significantly reduced
lung inflammation levels (all groups) ([7]; 7 days after final OVA challenge): statistically indistinguishable
growth of tumours (tumours): suppress the growth of tumours
increased potency compared to 20 other methyltransferases [8]: > 1000 fold
BAL cells [9, 14]: no effect
PAS staining [9, 14]: no effect
lung tissue inflammation [9, 14]: no effect
PAS+ mucous-producing epithelial cells ([9]; 150 mg/kg): similarly reduced
levels of inflammation in the lung tissue ([9]; 150 mg/kg): similarly reduced
BAL T cells [9, 15]: dramatic reduction
BAL eosinophils [9, 15]: dramatic reduction
BAL neutrophils [9, 15]: dramatic reduction
total BAL leukocytes [9, 15]: dramatic reduction
OVA-induced airway hyperresponsiveness ([9]; 150 mg/kg, methacholine): complete protection
OVA-specific IgE in serum [9, 16]: unchanged
total IgE in serum [9, 16]: unchanged
systemic effects ([9]; mouse, in vivo): did not observe any systemic effects
BAL granulocyte numbers [10]: did not alter
BAL CD4+ T cell numbers ([10]; 150 mg/kg): reduced; also recorded: selectively reduces
number of cells recovered in the culture compared to vehicle control [11]: dose-dependent effect
increased potency compared to EZH1 (EZH1 [12]): 150 fold

CCN(c1cc(-c2ccc(CN3CCOCC3)cc2)cc(C(=O)NCc2c(C)cc(C)[nH]c2=O)c1C)C1CCOCC1 [Tazemetostat]
oral bioavailability [1]: orally bioavailable

CCCc1cc(C)[nH]c(=O)c1CNC(=O)c1cc(-c2ccc(N3CCN(C(C)C)CC3)nc2)cc2c1cnn2C(C)C [UNC 1999]
growth of MLL-rearranged leukemia (MLL-rearranged leukemia): inhibit growth
